Test results: article PMC12648368 (British Journal of Clinical Pharmacology, 2025)
“Also recorded” adds a separate entry of the source. Read-outs that look alike come from different tables or passages of the source. Blank lines part the entries; values can stand above or below the molecule they belong to.

Columns and labels:
[1] = Effect-compartment model of intracellular PBMC concentrations, DERIVE study; type: in vivo, human; settings: for Equilibration half‐life, t 1/2 (plasma to PBMC) / half-life / Kp: PBMC effect compartment, estimate (95% CI); for half-life / Kp: human, oral; for half-life: PBMC, read-out: Equilibration half‐life, t 1/2 (plasma to PBMC) (converted); for Kp: read-out: Pseudo‐partition coefficient, PPC (ratio of drug in PBMC to plasma)
Description: Pharmacokinetic sampling was conducted over four visits. […] The rifampicin dose was increased to 1200 mg once daily (QD) for 1 week. […] Dolutegravir was maintained for an additional 2 weeks. […] Blood samples were centrifuged and stored at -80 °C prior to shipment and assay at the University of Cape Town, where drug concentrations were measured using high-performance liquid chromatography with tandem mass spectrometry (HPLC MS/MS). […] Atazanavir and ritonavir pharmacokinetic models were separately developed using […] data. We tested one- and two-compartment disposition models with linear elimination, and delayed absorption modelled by a lag time or series of transit compartments. PBMC concentrations were modelled using a hypothetical effect compartment connected to the central compartment of the plasma model. An equilibration half-life (t1/2) and a pseudopartition coefficient (PPC) were used to parameterize the rate of drug entry into the PBMC compartment and its accumulation ratio between the PBMC and plasma, respectively (Figure S1).

[2] = in vivo; cited from earlier work
[3] = Population pharmacokinetic model of plasma atazanavir and ritonavir concentrations, DERIVE study (ATV/r with or without rifampicin); settings: for Vd / bioavailability / clearance: human, plasma, oral; for Effect of increasing rifampicin dose on clearance, bioavailability / pharmacokinetics: rifampicin 1200 mg QD vs 600 mg QD, ATV/r BID; for Fold‐change in CL for ATV/r BID + RIF: ATV/r 300/100 mg BID with rifampicin; for Fold‐change in CL for ATV/r QD + RIF: rifampicin 600 mg QD added to ATV/r
[4] = Final atazanavir model applied to atazanavir-only data (without ritonavir) of the ACTG A5231 study
Description: Atazanavir was administered with or without rifampicin in three periods: 300 mg BID for 8 days (period 1), 300 mg BID with rifampicin 600 mg QD for 11 days (period 2) and 400 mg BID with rifampicin 600 mg QD for 8 days (period 3).[30] Pharmacokinetic sampling was conducted at the end of each period, with blood collected 15 min predose and at 1‐, 2‐, 3‐, 4‐, 5‐, 6‐, 8‐, 10‐, 12‐, and 24‐h postdose. Plasma samples were analysed at the University of Alabama using HPLC with UV detection (LLOQ 0.025 mg/L).[30]
The final atazanavir model, developed with DERIVE data, was applied to the A5231 dataset. We made the following adjustment to our model to account for the differences between the two studies.
All fixed parameters are estimates from DERIVE study population.

HIV‐1 = settings: against HIV‐1; cited from earlier work
plasma proteins = settings: cited from earlier work
[5] = design: method as in earlier work; settings: fixed in the previously published model; cited from earlier work
clinical = settings: human, in vivo
[6] = Inter compartmental clearance, typical participant 67 kg, fat‐free mass 42 kg, estimate (95% CI)
[7] = typical participant 67 kg, fat‐free mass 42 kg, estimate (95% CI)
[8] = estimate (95% CI), listed as atazanavir

Equilibration half‐life, t 1/2 (plasma to PBMC) [1]: 1.40 (1.38‐1.63) h
half-life [1]: ~1 h
Kp [1]: 1.68
Bioavailability decreased to, with rifampicin ([3]; ATV/r QD + rifampicin, relative to ATV/r without rifampicin): 31%
BOV in F ([3]; estimate (95% CI)): 55.5 (48.1‐63.8) % CV
BOV in MTT ([3]; estimate (95% CI)): 43.6 (37.7‐51.6) % CV
Between occasion variability (BOV) in k a ([3]; estimate (95% CI)): 82.3 (67.3‐99.1) % CV
Between subject variability in clearance ([3]; estimate (95% CI)): 16.4 (12.3‐21.8) % CV
Change in F for ATV/r BID + RIF ([3]; estimate (95% CI)): −33.3 (−46.6 −10.9) %
Change in F for ATV/r QD + RIF ([3]; estimate (95% CI)): −68.8 (−75.2 −58.5) %
Mean absorption transit time, MTT ([3]; estimate (95% CI)): 0.483 (0.428‐0.545) h
Transit compartments, NN ([3]; estimate (95% CI)): 12.3 (6.64‐17.7) n
Vd [3]: 55.4 L
bioavailability [3]: 100%
clearance ([3]; Clearance, CL, ATV/r 300/100 mg QD without rifampicin, typical participant 67 kg, fat‐free mass 42 kg, typical estimate (95% CI)): 161 mL/min
clearance [3, 6]: 26 mL/min
Effect of increasing rifampicin dose on clearance, bioavailability / pharmacokinetics [3]: no further effect
Volume of distribution (peripheral compartment) [3, 7]: 70.1 (39.7‐125) L
SMILES: CC(C)c1nc(CN(C)C(=O)N[C@H](C(=O)N[C@@H](Cc2ccccc2)C[C@H](O)[C@H](Cc2ccccc2)NC(=O)OCc2cncs2)C(C)C)cs1 [Ritonavir, ritonavir]
Time to steady‐state concentrations [2]: about 2 weeks

SMILES: COC(=O)N[C@H](C(=O)N[C@@H](Cc1ccccc1)[C@@H](O)CN(Cc1ccc(-c2ccccn2)cc1)NC(=O)[C@@H](NC(=O)OC)C(C)(C)C)C(C)(C)C [Atazanavir, atazanavir]
Equilibration half‐life, t 1/2 (plasma to PBMC) [1]: 0.963 (0.546‐1.51) h
Effect of rifampicin on PBMC equilibration t 1/2 and PPC (intracellular accumulation) ([1]; addition of rifampicin to the regimen): did not affect the ratio of atazanavir concentration between PBMCs and plasma; also recorded: neither of which were affected; also recorded: does not affect the intracellular accumulation of atazanavir
half-life [1]: ~1 h
Kp [1]: 0.653
Fold-change in CL due to absence of ritonavir ([4]; A5231 all PK visits vs ATV/r without rifampicin (DERIVE visit 1), estimate (95% CI)): 2.13 (1.88 – 2.34) -fold
BOV in F ([4]; human, in vivo): 58.3 (46.4 – 73.5) % CV
BOV in MTT ([4]; human, in vivo): 48.1 (36.9 – 63.4) % CV
Between occasion variability (BOV) in k a ([4]; human, in vivo): 101 (fixed) % CV
Between subject variability in clearance ([4]; human, in vivo): 18.8 (13.7 – 24.4) % CV
Change in F with rifampicin ([4]; human, in vivo): -55.3 (-64.0 – -46.2) %
Change in ka with rifampicin ([4]; human, in vivo): -70.8 (fixed) %
Clearance, CL ([4]; human, in vivo): 7.55 (fixed) L/h
MTT longer in A5231 compared to DERIVE ([4]; human, in vivo): 2.5 ‐fold
Mean absorption transit time, MTT ([4]; human, in vivo): 1.38 (1.15 – 1.61) h
Reduction in bioavailability when rifampicin was coadministered ([4]; human, in vivo): 55%
Transit compartments, NN ([4]; human, in vivo): 10 (fixed) n
Vd ([4]; human, in vivo): 77.3 L
Volume of distribution (peripheral compartment) ([4]; human, in vivo): 48.9 (fixed) L
bioavailability ([4]; human, in vivo): 100%
clearance ([4]; human, in vivo): 58.5 mL/min
Protein‐adjusted in vitro 90% inhibitory concentration (PA‐IC90) (HIV‐1): 0.014 µg/mL
Bound to plasma proteins (plasma proteins): about 86%
Fold‐change in CL for ATV/r BID + RIF ([3]; estimate (95% CI)): 2.03 (1.82‐2.25) ‐fold
Fold‐change in CL for ATV/r BID + RIF [3, 8]: 2 ‐fold
Clearance, CL ([3]; ATV/r 300/100 mg QD without rifampicin, typical participant 67 kg, fat‐free mass 42 kg, typical estimate (95% CI)): 7.57 (6.42‐9.06) L/h
Effect of doubling ATV/r dosing frequency on bioavailability ([3]; ATV/r BID with standard dose rifampicin): restored atazanavir bioavailability
Effect of TDF on clearance and bioavailability ([3]; co-medication tenofovir disoproxil fumarate): affected neither
BOV in F ([3]; estimate (95% CI)): 48.2 (40.7‐53.6) % CV
BOV in MTT ([3]; estimate (95% CI)): 59.4 (49.3‐73.6) % CV
Between occasion variability (BOV) in k a ([3]; estimate (95% CI)): 97.9 (80.8‐125) % CV
Between subject variability in clearance ([3]; estimate (95% CI)): 27.6 (19.7‐36.7) % CV
Between visit variability in clearance ([3]; estimate (95% CI)): 17.5 (14.4‐24.5) % CV
Change in F for ATV/r QD + RIF ([3]; estimate (95% CI)): −52.5 (−62.5 −41.4) %
Change in k a due to RIF ([3]; estimate (95% CI)): −67.3 (−76.2 −53.2) %
Mean absorption transit time, MTT ([3]; estimate (95% CI)): 0.499 (0.429‐0.574) h
Transit compartments, NN ([3]; fixed in the model): 10 Fixed n
Vd [3]: 77.5 L
bioavailability [3]: 100%
clearance [3, 6]: 52.2 mL/min
Fold‐change in CL for ATV/r QD + RIF ([3]; estimate (95% CI)): 3.05 (2.67‐3.45) ‐fold
Fold‐change in CL for ATV/r QD + RIF [3, 8]: 3 ‐fold
Effect of increasing rifampicin dose on clearance, bioavailability / pharmacokinetics [3]: no significant effect
Reduction of bioavailability by rifampicin ([3]; rifampicin added to standard ATV/r QD regimen): 53%
Volume of distribution (peripheral compartment) [3, 7]: 42.1(26.6‐79.0) L

SMILES: CO[C@H]1/C=C/O[C@@]2(C)Oc3c(C)c(O)c4c(O)c(c(/C=N/N5CCN(C)CC5)c(O)c4c3C2=O)NC(=O)/C(C)=C\C=C\[C@H](C)[C@H](O)[C@@H](C)[C@@H](O)[C@@H](C)[C@H](OC(C)=O)[C@@H]1C [rifampicin]
BOV in MTT (estimate (95% CI)): 46.8 (40.0 – 56.8) % CV
BOV in ka (estimate (95% CI)): 104 (85.3 – 136) % CV
Between occasion variability (BOV) in F (estimate (95% CI)): 22.0 (17.9 – 26.3) % CV
Between subject variability in clearance (estimate (95% CI)): 27.7 (22.1 – 35.2) % CV
Mean absorption transit time, MTT (estimate (95% CI)): 0.502 (0.447 – 0.558) h
Transit compartments, NN (estimate (95% CI)): 20.3 (15.8 – 25.9) n
Bioavailability, F (human, in vivo): 1 (fixed) fraction
Unbound fraction of rifampicin, fu [5]: 0.2 (fixed) fraction
Km (clinical): 4.9 µg/mL
Vd (clinical): 44.7 L
clearance (clinical): 550 mL/min
